The solubility is the dissolved amount per volume that the medium holds.

One data set in a line: Solubility in water. In kind it is physicochemical.
The subject of data set [1] is scopolamine-induced cognitive deficit. Description: Morris water maze, spatial discrimination version, scopolamine-induced cognitive deficit. The data set is classed as in vivo, rat. The note with it: about 0.001 to about 5 μmol/kg, 30 minutes prior to the test; scopolamine HBr 0.3 mg/kg i.p. The method, then:
Male, Long-Evans rats, 300-400 g, obtained from Charles River laboratories were used in this study. During two daily habituation sessions, rats are trained to find a visible escape platform in a pool (180 cm diameter and 60 cm high) filled to a depth of 37 cm with water made opaque with powdered milk. Water temperature is maintained at 26° C. On the second day of habituation training, latency to escape measures are obtained in order to assure that animals are assigned to groups without swim speed bias. For spatial discrimination training, two visible platforms, covered in aluminum foil, are present. The platforms remain in the same position (diagonal to each other) through 5 days of training. Only one of the platforms provides escape; the other, made of expanded polystyrene, will not support the animals' weight. Rats receive six trials/day, with start position changed from trial to trial. The number of contacts with the incorrect platform (errors) serves as the dependent variable.
A cognitive deficit, as measured by increased number of errors in the water maze test, is induced by i.p. administration of the muscarinic antagonist scopolamine·HBr (0.3 mg/kg), dosed 15 min prior to each daily discrimination training session (over five days total).

Each structure is given as a SMILES string. Some results are limits rather than exact numbers.

`CS(=O)(=O)O.Clc1cc(N2C[C@@H]3CN[C@@H]3C2)cnc1Cl` [Example 8, (1S,5S)-3-(5,6-Dichloro-pyridin-3-yl)-3,6-diaza-bicyclo[3.2.0]heptane methanesulfonate] registered a solubility in the data set “Solubility in water” above 50000 µg/mL.
Regarding `CC(=O)O.Clc1cc(N2C[C@@H]3CN[C@@H]3C2)cnc1Cl` [Example 6, (1S,5S)-3-(5,6-Dichloro-pyridin-3-yl)-3,6-diaza-bicyclo[3.2.0]heptane acetate], the solubility in the data set “Solubility in water” turned out to be 13400 µg/mL.
As to `Clc1cc(N2C[C@@H]3CN[C@@H]3C2)cnc1Cl` [(1S,5S)-3-(5,6-Dichloropyridin-3-yl)-3,6-diaza-bicyclo[3.2.0]heptane], the “effect on scopolamine-induced cognitive deficit in the water maze” value in data set [1] was “reversed the cognitive deficit and normalized the performance of the animals in the water maze”.
Molecule `Clc1cc(N2C[C@@H]3CN[C@@H]3C2)cnc1Cl.O=C(O)/C=C\C(=O)O` [Example 9, (1S,5S)-3-(5,6-Dichloro-pyridin-3-yl)-3,6-diaza-bicyclo[3.2.0]heptane maleate] came in with a solubility in the data set “Solubility in water” of 7500 µg/mL.
On to `Clc1cc(N2C[C@@H]3CN[C@@H]3C2)cnc1Cl.O=C(O)/C=C/C(=O)O` [Example 10, (1S,5S)-3-(5,6-Dichloro-pyridin-3-yl)-3,6-diaza-bicyclo[3.2.0]heptane fumarate], for which, in the data set “Solubility in water”, the solubility was 2900 µg/mL.

The values above are taken from patent US7538226B2, “(1S,5S)-3-(5,6-dichloro-3-pyridinyl)-3,6-diazabicyclo[3.2.0]heptane” (Abbott Laboratories, priority 2003, dated 2009).
